Experimental data published in patent US6495699B2, “Metalloproteinase inhibitors, pharmaceutical compositions containing them, and their use” (Agouron Pharmaceuticals Inc., priority 1996, dated 2002).

Key:
[1] = target: T1, Human matrilysin (Matr) (Homo sapiens, UniProt P09237); experiment: Fluorometric MCA-peptide hydrolysis assay, matrilysin (Matr); assay type: biochemical; details: apparent Ki; 10 μM MCA peptide substrate, 37° C., pH 7.5; read-out: Matr (Ki,app)
T1 construct: the catalytic domain was liberated by treatment with 2 mM APMA at 37° C. for 2 hours; ubiquitin (cleaved yes); made in house; host or cells: E. coli
T1 sequence (P09237 95-267): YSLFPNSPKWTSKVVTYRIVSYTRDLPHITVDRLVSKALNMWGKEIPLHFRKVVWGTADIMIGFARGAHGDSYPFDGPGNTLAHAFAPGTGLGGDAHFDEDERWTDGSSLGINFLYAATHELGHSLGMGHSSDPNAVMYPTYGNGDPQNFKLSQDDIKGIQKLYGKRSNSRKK
How it was run: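 Catalytic domain of E. coli-expressed human matrilysin assayed at 37° C, pH 7.5 Tricine buffer, 2% DMSO, with 10 μM MCA-Pro-Leu-Gly-Leu-DPA-Ala-Arg-NH2; fluorescence ex 328/em 393 nm over 60 min. Ki,app from steady-state rates fitted to competitive inhibition or Morrison tight-binding equation.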

[2] = target: T2, human collagenase-3 (Coll3) (Homo sapiens, UniProt P45452); experiment: Fluorometric MCA-peptide hydrolysis assay, collagenase-3 (Coll3); assay type: biochemical; details: apparent Ki; 10 μM MCA peptide substrate, 37° C., pH 7.5; read-out: Coll3 (Ki,app)
T2 construct: the catalytic domain was liberated by treatment with 2 mM APMA at room temperature overnight; ubiquitin (N, cleaved yes); made in house; host or cells: E. coli

[3] = target: T3, fibroblast collagenase-1 catalytic domain (HFC) (Homo sapiens, UniProt P03956); experiment: Fluorometric MCA-peptide hydrolysis assay, fibroblast collagenase-1 (HFC); assay type: biochemical; details: apparent Ki; 10 μM MCA peptide substrate, 37° C., pH 7.5; read-out: HFC (Ki,app)
T3 construct: The catalytic domain of human collagenase-1 was expressed as a fusion protein with ubiquitin in E. coli; ubiquitin (cleaved yes); made in house; host or cells: E. coli
T3 sequence (P03956 100-269 limits assumed): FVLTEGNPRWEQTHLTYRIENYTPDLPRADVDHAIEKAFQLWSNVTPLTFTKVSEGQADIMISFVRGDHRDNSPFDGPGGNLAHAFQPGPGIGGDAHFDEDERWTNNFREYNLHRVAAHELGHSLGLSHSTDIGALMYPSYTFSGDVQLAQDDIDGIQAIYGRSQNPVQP
Description: The catalytic domain of human collagenase-1 was expressed as a fusion protein with ubiquitin in E. coli (see Gehring, E. R., J Biol. Chem., 1995, 270, 22507). After purification of the fusion protein, the fibroblast collagenase-1 catalytic domain (HFC) was released either by treatment with purified, active stromelysin-1 (1:50 w/w ratio), which generated nearly 100% N-terminal Phe1, or by autoprocessing the concentrated collagenase-1 fusion and then incubating at 37° C. for 1 hour. Final purification was completed using zinc chelate chromatography.
Assays were performed in assay buffer (50 mM Tricine pH 7.5, 200 mM sodium chloride, 10 mM calcium chloride, 0.5 mM zinc acetate containing 2% dimethyl sulfoxide (DMSO)) once the substrate and inhibitor were diluted into it. Stock solutions of inhibitors were prepared in 100% DMSO. Stock solutions of the substrate were prepared in 100% DMSO at a concentration of 6 mM.
The assay method was based on the hydrolysis of MCA-Pro-Leu-Gly-Leu-DPA-Ala-Arg-NH2 (American Peptide Co.) at 37° C. (see Knight, C. G. et al., FEBS, 1992, 296, 263-266). The fluorescence changes were monitored with a Perkin-Elmer LS-50B fluorimeter using an excitation wavelength of 328 nm and an emission wavelength of 393 nm. The substrate concentration used in the assays was 10 μM. The inhibitor was diluted into the assays from a solution in 100% DMSO, and controls substituted an equal volume of DMSO so that the final DMSO concentration from inhibitor and substrate dilution in all assays was 2%. […] Proper determination of steady-state rates of substrate cleavage required assay lengths of 60 minutes to allow for complete equilibration of the enzyme-inhibitor complex.
The Km for the MCA peptide substrate with the matrix metalloproteinases is quite high and exceeds its solubility under assay conditions. Consequently, the apparent Ki (Ki,app) was determined to describe the strength of inhibition. However, in this case, Ki,app would be essentially equal to Ki since [S]<<Km. For the determination of Ki,app, the concentration of the inhibitor was varied at a constant and low concentration of substrate and the steady-state rates of fluorescence change determined. In most cases absorptive quench due to the presence of ligand was not observed. For slow-binding inhibitors, onset of inhibition curves were collected for at least 45 minutes so that equilibrium was established. Steady-state rates of fluorescence change were obtained by fitting a curve to an equation for a single exponential decay containing a linear phase. The fitted value of the linear phase was taken as the steady-state rate. The steady-state rates were fitted to the Michaelis equation describing competitive inhibition by non-linear methods. Data resulting from tight-binding inhibition was analyzed, and Ki,app determined by fitting the data to the tight-binding equation of Morrison (Biochem. Biophys. Acta, vol. 185, pp. 269-286 (1969)) by non-linear methods.

[4] = target: T4, catalytic domain of human stromelysin (Hsln) (Homo sapiens, UniProt P08254); experiment: Fluorometric MCA-peptide hydrolysis assay, stromelysin (Hsln); assay type: biochemical; details: apparent Ki; 10 μM MCA peptide substrate, 37° C., pH 7.5; read-out: Hsln (Ki,app)
T4 construct: The catalytic domain of human stromelysin (Hsln) was obtained by expression and purification of a C-terminally truncated prostromelysin-1; made in house; host or cells: E. coli BL21
T4 sequence (P08254 100-272 limits assumed): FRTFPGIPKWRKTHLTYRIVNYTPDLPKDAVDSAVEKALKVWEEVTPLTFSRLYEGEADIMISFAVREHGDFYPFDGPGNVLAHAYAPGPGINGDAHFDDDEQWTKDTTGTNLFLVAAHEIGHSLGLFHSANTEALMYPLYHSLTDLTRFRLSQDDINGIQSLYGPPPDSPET
How it was run: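 APMA-activated E. coli–expressed catalytic domain, with 10 μM MCA-Pro-Leu-Gly-Leu-DPA-Ala-Arg-NH2 at 37 °C. Buffer was pH 7.5 Tricine with NaCl, CaCl2, zinc acetate and 2% final DMSO; fluorescence read at ex 328/em 393 nm over 60 min. Ki,app from steady-state rates fitted to competitive or Morrison tight-binding equations.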

[5] = LogP; assay type: physicochemical
[6] = target: T5, human progelatinase A (GelA), catalytic and fibronectin-like portion (Homo sapiens, UniProt P08253); experiment: Fluorometric MCA-peptide hydrolysis assay, gelatinase A (GelA); assay type: biochemical; details: apparent Ki; 10 μM MCA peptide substrate, 37° C., pH 7.5
T5 construct: The catalytic and fibronectin-like portion of human progelatinase A (GelA) was expressed as a fusion protein with ubiquitin; ubiquitin; made in house; host or cells: E. coli
T5 sequence (P08253 110-465 limits assumed): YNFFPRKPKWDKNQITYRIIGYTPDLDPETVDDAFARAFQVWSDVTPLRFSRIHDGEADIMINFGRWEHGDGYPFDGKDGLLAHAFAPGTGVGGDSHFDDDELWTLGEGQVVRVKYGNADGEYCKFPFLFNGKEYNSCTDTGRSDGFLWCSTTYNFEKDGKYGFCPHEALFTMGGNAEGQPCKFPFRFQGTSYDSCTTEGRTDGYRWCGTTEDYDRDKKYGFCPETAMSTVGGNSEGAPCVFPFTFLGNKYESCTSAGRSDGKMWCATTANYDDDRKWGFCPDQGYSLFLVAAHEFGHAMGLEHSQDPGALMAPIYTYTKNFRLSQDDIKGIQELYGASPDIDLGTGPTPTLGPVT
How it was run: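 E. coli-expressed ubiquitin fusion of human proGelA catalytic plus fibronectin-like domains, autoactivated; 10 μM MCA-Pro-Leu-Gly-Leu-DPA-Ala-Arg-NH2, pH 7.5 Tricine/NaCl/CaCl2/Zn buffer, 2% DMSO, 37° C, 60 min. Fluorescence 328/393 nm; steady-state rates fitted to competitive inhibition or Morrison tight-binding equation giving Ki,app (≈Ki since [S]<<Km).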

[7] = Determination of inhibitor concentration in plasma after oral dosing; assay type: in vivo, Sprague Dawley rats; details: Sprague-Dawley, rat plasma, dose 50 mg/kg
Description: The dosing solution consisted of the inhibitor dissolved in either a molar equivalent of HCl in water (vehicle A), in 60% aq. propylene glycol (vehicle B), or in 2.8 mg/mL sodium bicarbonate in 60% aqueous propylene glycol (vehicle C), yielding a final concentration that ranged from 10-15 mg/ml. Sprague Dawley rats (Hilltop Lab Animals, Scottsdale, Pa.) were dosed as a function of drug weight per body weight, usually 50 mgper kg. Blood was taken from the rats and centrifuged, and the plasma was stored in the freezer. Drug was extracted from a 50 μl plasma aliquot by adding 1 ml of acetonitrile, shaking for 2 minutes, centrifuging for 15 minutes at 4000 rpm, collecting the supernatant, and then evaporating it to dryness under a stream of nitrogen. The samples were reconstituted with 130 μl of mobile phase, shook for 2 minutes, and centrifuged for 15 minutes at 4000 rpm. The supernatant was collected and the samples were analyzed by injecting 100 μl of supernatant onto HPLC.
Quantitation of drug levels was accomplished by generating a standard curve of known drug amounts that were extracted from added plasma. Drug levels were plotted as a function of time and analyzed to provide area under the curve (AUC) and maximum concentration (Cmax) values.

[8] = vehicle B (60% aq. propylene glycol)
[9] = vehicle A (molar equivalent of HCl in water)

SMILES	Ki [1] [nM]	Ki [2] [nM]	Ki [3] [nM]	melting point [°C]	Ki [4] [nM]	logP [5]	GelA (Ki,app) [6] [nM]	AUC [7, 8] [ng·h/mL]	Cmax [7, 8] [ng/mL]	AUC [7, 9] [ng·h/mL]	Cmax [7, 9] [ng/mL]
CC(C)(C)[C@H](NC(=O)[C@@H](CC(=O)O)n1ccc(-c2ccc(-c3ccc(C(N)=O)cc3)cc2)c1)C(=O)Nc1ccncc1 [Example 5(f), 3(R)-[3-(4′-Carbamoylbiphenyl-4-yl)-1H-pyrrol-1-yl]-N-[2,2-dimethyl-1(S)-(N-(pyridin-4-yl)carbamoyl)propyl]succinamic Acid]	2.1	0.012	818	194 to 196	0.46	2.56	0.023	–	–	–	–
O=C(O)C[C@H](C(=O)N[C@H]1Cc2cn(c3ccccc23)CCOCCNC1=O)n1ccc(-c2ccccc2)c1 [Example 1(c), N-(8-Oxo-4-oxa-1,7-diazatricyclo[9.6.1.0^12,17]octadeca-11(18), 12,14,16-tetraen-9(S)-yl)-3(R)-(3-phenyl-1H-pyrrol-1-yl)succinamic Acid]	16900	0.868	–	–	486	-0.97	2	–	–	–	–
CNC(=O)[C@@H](NC(=O)[C@@H](CC(=O)O)n1ccc(-c2ccc(C#N)cc2)c1)C(C)(C)C [Example 1(m), 3 (R)-[3-(4-Cyanophenyl)-1H-pyrrol-1-yl]-N-[2,2-dimethyl-1(S)-(methylcarbamoyl)propyl]succinamic Acid]	–	1	997	138 to 140	50	–	0.41	967	590	–	–
CNC(=O)[C@@H](NC(=O)[C@@H](CC(=O)O)n1ccc(-c2ccc(-c3ccccc3)cc2)c1)C(C)(C)C [Example 1(e), 3(R)-[3-(Biphenyl-4-yl)-1H-pyrrol-1-yl]-N-[2,2-dimethyl-1(S)-(methylcarbamoyl)propyl]succinamic Acid]	500	0.9	–	–	3.1	1.19	0.108	–	–	–	–
CC(C)(C)[C@@H](CO)NC(=O)[C@@H](CC(=O)O)n1ccc(-c2ccc(-c3ccncc3)cc2)c1 [Example 5(a), N-[2,2-Dimethyl-1(S)-(hydroxymethyl)propyl]-3(R)-[3-[4-(pyridin-4-yl)phenyl]-1H-pyrrol-1-yl]succinamic Acid]	–	1.8	–	192 to 194	84	0.11	1.6	–	–	3520	1600
CNC(=O)[C@@H](NC(=O)[C@@H](CC(=O)O)n1ccc(-c2ccccc2)c1)C(C)(C)C [1(b), N-[2,2-Dimethyl-1(S)-(methylcarbamoyl)propyl]-3(R)-(3-phenyl-1H-pyrrol-1-yl)succinamic acid]	–	18.3	–	–	2000	-0.83	5.91	–	–	–	–
CNC(=O)[C@@H](NC(=O)[C@@H](CC(=O)O)n1ccc(-c2ccc(-c3ccc(C(N)=O)cc3)cc2)c1)C(C)(C)C [Example 5(e), 3(R)-[3-(4′-Carbamoylbiphenyl-4-yl)-1H-pyrrol-1-yl]-N-(2,2-dimethyl-1(S)-(methylcarbamoyl)propyl)succinamic Acid]	182	0.076	530	–	1.7	1.71	0.109	–	–	–	–
